Experimental data as given in patent US20150218534A1, “MODIFIED DNA POLYMERASE” (TOYOBO CO., LTD., priority 2012, published 2015).
Changes are numbered by the printed parent chain. Names and notes keep the numbering of the source.

How the values were obtained:
[1] = tested on: 1.3 kbp, 2.8 kbp, and 3.6 kbp of human β-globin; experiment: Amplification of long-chain DNA in PCR using dUTP; type: biochemical; set-up: key to Results of PCR in the presence of dUTP 1.3 kbp / Results of PCR in the presence of dUTP 2.8 kbp / Results of PCR in the presence of dUTP 3.6 kbp: A: Amplified; B: Amplified (faint band); C: Not amplified; settings: dTTP replaced by dUTP, 35 cycles
How it was run: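 Enzymes (1 U, premixed with KOD antibody) amplified 1.3, 2.8 and 3.6 kbp β-globin from 10 ng human genomic DNA with 2 mM dNTPs having dUTP in place of dTTP, 1.5 mM MgSO4, 35 cycles (98° C. 10 s, 65° C. 30 s, 68° C. ~1 min/kbp). Taq control: 2.5 U, 94° C. denaturation. Yield judged by ethidium-stained agarose gel.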

[2] = tested on: human genomic DNA (about 1.3 kb) with dUTP added; experiment: Evaluation of uracil (dUTP) sensitivity by PCR with dUTP added to the reaction; type: biochemical; settings: for Evaluation of dUTP resisitance on a 11-point scale: closer to 0 = stronger sensitivity to dUTP, closer to 10 = lower sensitivity, summary of Examples 1 to 3; for dUTP resistance: dUTP added to 0.5, 5, 50, 100, 200 μM, about 1.3 kb, 30 cycles, 1 U enzyme; for PCR products on addition of dUTP: some amount of dUTP added
How it was run: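 Each enzyme (1 U) amplified about 1.3 kb from 10 ng human genomic DNA in KOD-Plus-Ver. 2 buffer with 1.5 mM MgSO4 and 0.2 mM dNTPs. dUTP was added at final 0.5, 5, 50, 100 and 200 μM, over 30 cycles of 98/65/68° C. Sensitivity is the dUTP level still yielding product on ethidium bromide-stained agarose gel.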

In the case of “KOD I142R/Y7A/V93K: KOD I142R (exo(−)) mutant with Y7A and V93K”, the “Results of PCR in the presence of dUTP 1.3 kbp” value (shortened to “Results of PCR … of dUTP 1.3 kbp”) [1] is reported as “A”, the “Results of PCR in the presence of dUTP 2.8 kbp” value (“Results of PCR … of dUTP 2.8 kbp” below) [1] is reported as “A” and the “Results of PCR in the presence of dUTP 3.6 kbp” value (from here on “Results of PCR … of dUTP 3.6 kbp”) [1] is reported as “A”. The “Evaluation of dUTP resisitance on a 11-point scale” value (shortened to “Evaluation of dUTP resisitance”) [2] was 10 and the “dUTP resistance” value [2] was over 200 µM.

In the case of “KOD I142R/Y7A: KOD I142R (exo(−)) mutant with Y7A”, the “Results of PCR … of dUTP 1.3 kbp” value [1] is reported as “C”, the “Results of PCR … of dUTP 2.8 kbp” value [1] is reported as “C” and the “Results of PCR … of dUTP 3.6 kbp” value [1] is reported as “C”. The “Evaluation of dUTP resisitance” value [2] was 2 and the “dUTP resistance” value [2] was 5 µM.

“KOD N210D/P36H: KOD N210D (exo(−)) mutant with P36H” was tested, and the “Results of PCR … of dUTP 1.3 kbp” value [1] was “A”, the “Results of PCR … of dUTP 2.8 kbp” value [1] was “A” and the “Results of PCR … of dUTP 3.6 kbp” value [1] was “A”. For the same molecule, the “Evaluation of dUTP resisitance” value [2] was 8 and the “dUTP resistance” value [2] was over 200 µM.

For “KOD N210D/P36R: KOD N210D (exo(−)) mutant with P36R”, the “Results of PCR … of dUTP 1.3 kbp” value [1] was “A”, the “Results of PCR … of dUTP 2.8 kbp” value [1] was “A” and the “Results of PCR … of dUTP 3.6 kbp” value [1] was “A”. The “Evaluation of dUTP resisitance” value [2] was 8 and the “dUTP resistance” value [2] was over 200 µM.

“KOD N210D/P115Δ: KOD N210D (exo(−)) mutant lacking P115” was tested, and the “Results of PCR … of dUTP 1.3 kbp” value [1] was “C”, the “Results of PCR … of dUTP 2.8 kbp” value [1] was “C” and the “Results of PCR … of dUTP 3.6 kbp” value [1] was “C”. The “Evaluation of dUTP resisitance” value [2] was 0 and the “dUTP resistance” value [2] was 0 µM.

“KOD N210D/V93K: KOD N210D (exo(−)) mutant with V93K” was tested, and the “Results of PCR … of dUTP 1.3 kbp” value [1] was “A”, the “Results of PCR … of dUTP 2.8 kbp” value [1] was “B” and the “Results of PCR … of dUTP 3.6 kbp” value [1] was “B”. For the same molecule, the “Evaluation of dUTP resisitance” value [2] was 8 and the “dUTP resistance” value [2] was over 200 µM.

“KOD N210D/V93Q: KOD N210D (exo(−)) mutant with V93Q” was tested, and the “Results of PCR … of dUTP 1.3 kbp” value [1] was “C”, the “Results of PCR … of dUTP 2.8 kbp” value [1] was “C” and the “Results of PCR … of dUTP 3.6 kbp” value [1] was “C”. The “Evaluation of dUTP resisitance” value [2] was 6 and the “dUTP resistance” value [2] was over 200 µM.

For “KOD N210D/V93R: KOD N210D (exo(−)) mutant with V93R”, the “Results of PCR … of dUTP 1.3 kbp” value [1] was “A”, the “Results of PCR … of dUTP 2.8 kbp” value [1] was “B” and the “Results of PCR … of dUTP 3.6 kbp” value [1] was “B”. The “Evaluation of dUTP resisitance” value [2] was 8 and the “dUTP resistance” value [2] was over 200 µM.

For “KOD N210D/Y7A/P36H: KOD N210D (exo(−)) mutant with Y7A and P36H”, the “Results of PCR … of dUTP 1.3 kbp” value [1] was “A”, the “Results of PCR … of dUTP 2.8 kbp” value [1] was “A” and the “Results of PCR … of dUTP 3.6 kbp” value [1] was “A”. The “Evaluation of dUTP resisitance” value [2] was 10 and the “dUTP resistance” value [2] was over 200 µM.

For “KOD N210D/Y7A/P36R: KOD N210D (exo(−)) mutant with Y7A and P36R”, the “Results of PCR … of dUTP 1.3 kbp” value [1] was “A”, the “Results of PCR … of dUTP 2.8 kbp” value [1] was “A” and the “Results of PCR … of dUTP 3.6 kbp” value [1] was “A”. The “Evaluation of dUTP resisitance” value [2] was 10 and the “dUTP resistance” value [2] was over 200 µM.

With “KOD N210D/Y7A/P115Δ: KOD N210D (exo(−)) mutant with Y7A and lacking P115” the “Results of PCR … of dUTP 1.3 kbp” value [1] was “C”, the “Results of PCR … of dUTP 2.8 kbp” value [1] was “C” and the “Results of PCR … of dUTP 3.6 kbp” value [1] was “C”. The “Evaluation of dUTP resisitance” value [2] was 0 and the “dUTP resistance” value [2] was 0 µM.

For “KOD N210D/Y7A/V93K: KOD N210D (exo(−)) mutant with Y7A and V93K”, the “Results of PCR … of dUTP 1.3 kbp” value [1] was “A”, the “Results of PCR … of dUTP 2.8 kbp” value [1] was “A” and the “Results of PCR … of dUTP 3.6 kbp” value [1] was “A”. For the same molecule, the “Evaluation of dUTP resisitance” value [2] was 10 and the “dUTP resistance” value [2] was over 200 µM.

For “KOD N210D/Y7A: KOD N210D (exo(−)) mutant with Y7A”, the “Results of PCR … of dUTP 1.3 kbp” value [1] was “C”, the “Results of PCR … of dUTP 2.8 kbp” value [1] was “C” and the “Results of PCR … of dUTP 3.6 kbp” value [1] was “C”. For the same molecule, the “Evaluation of dUTP resisitance” value [2] was 2 and the “dUTP resistance” value [2] was 5 µM.

In the case of “KOD P36R/V93K: modified KOD DNA polymerase with P36R and V93K”, the “Results of PCR … of dUTP 1.3 kbp” value [1] is reported as “C”, the “Results of PCR … of dUTP 2.8 kbp” value [1] is reported as “C” and the “Results of PCR … of dUTP 3.6 kbp” value [1] is reported as “C”. For the same molecule, the “Evaluation of dUTP resisitance” value [2] was 0 and the “dUTP resistance” value [2] was 0 µM.

“KOD P115Δ: modified KOD DNA polymerase lacking P115” was tested, and the “Results of PCR … of dUTP 1.3 kbp” value [1] was “C”, the “Results of PCR … of dUTP 2.8 kbp” value [1] was “C” and the “Results of PCR … of dUTP 3.6 kbp” value [1] was “C”. The “Evaluation of dUTP resisitance” value [2] was 0 and the “dUTP resistance” value [2] was 0 µM.

For “KOD Y7A/P36H: modified KOD DNA polymerase with Y7A and P36H”, the “Results of PCR … of dUTP 1.3 kbp” value [1] was “A”, the “Results of PCR … of dUTP 2.8 kbp” value [1] was “A” and the “Results of PCR … of dUTP 3.6 kbp” value [1] was “B”. The “Evaluation of dUTP resisitance” value [2] was 8 and the “dUTP resistance” value [2] was over 200 µM.

In the case of “KOD Y7A/P36R: modified KOD DNA polymerase with Y7A and P36R”, the “Results of PCR … of dUTP 1.3 kbp” value [1] is reported as “A”, the “Results of PCR … of dUTP 2.8 kbp” value [1] is reported as “A” and the “Results of PCR … of dUTP 3.6 kbp” value [1] is reported as “B”. The “Evaluation of dUTP resisitance” value [2] was 7 and the “dUTP resistance” value [2] was over 200 µM.

With “KOD Y7A/P115Δ: modified KOD DNA polymerase with Y7A and lacking P115” the “Results of PCR … of dUTP 1.3 kbp” value [1] was “C”, the “Results of PCR … of dUTP 2.8 kbp” value [1] was “C” and the “Results of PCR … of dUTP 3.6 kbp” value [1] was “C”. The “Evaluation of dUTP resisitance” value [2] was 0 and the “dUTP resistance” value [2] was 0 µM.

With “KOD Y7A/V93K: modified KOD DNA polymerase with Y7A and V93K” the “Results of PCR … of dUTP 1.3 kbp” value [1] was “A”, the “Results of PCR … of dUTP 2.8 kbp” value [1] was “A” and the “Results of PCR … of dUTP 3.6 kbp” value [1] was “B”. The “Evaluation of dUTP resisitance” value [2] was 8 and the “dUTP resistance” value [2] was over 200 µM.

B1: KOD Y7A: modified DNA polymerase derived from Thermococcus kodakaraensis KOD1 with Y7A (protein, listed as Thermococcus kodakaraensis)
chain: MILDTDAITEDGKPVIRIFKKENGEFKIEYDRTFEPYFYALLKDDSAIEEVKKITAERHGTVVTVKRVEKVQKKFLGRPVEVWKLYFTHPQDVPAIRDKIREHPAVIDIYEYDIPFAKRYLIDKGLVPMEGDEELKMLAFDIETLYHEGEEFAEGPILMISYADEEGARVITWKNVDLPYVDVVSTEREMIKRFLRVVKEKDPDVLITYNGDNFDFAYLKKRCEKLGINFALGRDGSEPKIQRMGDRFAVEVKGRIHFDLYPVIRRTINLPTYTLEAVYEAVFGQPKEKVYAEEITTAWETGENLERVARYSMEDAKVTYELGKEFLPMEAQLSRLIGQSLWDVSRSSTGNLVEWFLLRKAYERNELAPNKPDEKELARRRQSYEGGYVKEPERGLWENIVYLDFRSLYPSIIITHNVSPDTLNREGCKEYDVAPQVGHRFCKDFPGFIPSLLGDLLEERQKIKKKMKATIDPIERKLLDYRQRAIKILANSYYGYYGYARARWYCKECAESVTAWGREYITMTIKEIEEKYGFKVIYSDTDGFFATIPGADAETVKKKAMEFLKYINAKLPGALELEYEGFYKRGFFVTKKKYAVIDEEGKITTRGLEIVRRDWSEIAKETQARVLEALLKDGDVEKAVRIVKEVTEKLSKYEVPPEKLVIHEQITRDLKDYKATGPHVAVAKRLAARGVKIRPGTVISYIVLKGSGRIGDRAIPFDEFDPTKHKYDAEYYIENQVLPAVERILRAFGYRKEDLRYQKTRQVGLSAWLKPKGT
In the case of B1, the “Results of PCR … of dUTP 1.3 kbp” value [1] is reported as “C”, the “Results of PCR … of dUTP 2.8 kbp” value [1] is reported as “C” and the “Results of PCR … of dUTP 3.6 kbp” value [1] is reported as “C”. For the same molecule, the “Evaluation of dUTP resisitance” value [2] was 2, the “dUTP resistance” value [2] was 0.5 µM and the “PCR products on addition of dUTP” value [2] was “PCR products were confirmed”.

B2: KOD P36H: modified KOD DNA polymerase with P36H (protein, listed as Thermococcus kodakaraensis)
chain: B1 chain with A7Y, P36H
With B2 the “Results of PCR … of dUTP 1.3 kbp” value [1] was “B”, the “Results of PCR … of dUTP 2.8 kbp” value [1] was “B” and the “Results of PCR … of dUTP 3.6 kbp” value [1] was “C”. The “Evaluation of dUTP resisitance” value [2] was 5, the “dUTP resistance” value [2] was over 200 µM and the “PCR products on addition of dUTP” value [2] was “PCR products were confirmed”.
